From patent US7767804B2, “Compositions and methods for using a solid support to purify RNA” (Qiagen North American Holdings, Inc., priority 2001, dated 2010)
Where two headings read alike, the source gives them in different places.

Key:
[1] = cited from earlier work; for Type of Heat: heat of aqueous solution; for Heat of Aqueous Solution: tabulated, Handbook of Chemistry and Physics
[2] = approximate maximum solubility in Wash I Solution containing 55% ethanol
[3] = data extrapolated to 20° C. from tabulated data in Handbook of Chemistry and Physics, cited from earlier work
[4] = Source text: Much time and effort was spent screening detergents that would adequately lyse cells and also stay soluble in the Lysing/Binding Solution of the present invention. The Tween, Triton, Tergitol, Nonidet and Igepal family of detergents were examined along with a number of non-ionic detergent-like compounds.
RNase activity = RNase activity with LiCl Wash I Solution, detected as degraded RNA in the final eluted RNA product; assay type: biochemical
Source text: For cesium, ammonium, sodium and potassium chloride salts, the maximum solubilities obtained in 55% ethanol were about 2.5 M, 2 M, […] M, and <1 M, respectively. […] It is likely that RNase activity would be detected using the LiCl and LiBr salts as well, at least some proportion of the time, and depending upon the tissue from which the RNA is purified. […] This is probably because solubility definitions are somewhat vague for predicted alcohol solubilities, and the Wash I Solution used in this experiment contained a mixture of water and ethanol, rather than a pure alcohol solution.

[5] = pH 8.8

Structure (SMILES) | Type of Heat [1] | Heat of Aqueous Solution [1] | further results
Cl.N [NH4Cl, ammonium chloride] | endothermic | +3.53 kcal/mole | 
[Cl-].[Cs+] [CsCl, cesium chloride] | endothermic | +4.25 kcal/mole | 
[Cl-].[K+] [KCl, potassium chloride] | endothermic | +4.12 kcal/mole | Measured Solubility in Wash I [2]: < 1000 mM; Measured Solubility in Wash I ([2]; listed as potassium chloride): < 1000 mM; Reported Solubility in Water [3]: 3000 mM; Reported Solubility in Water ([3]; listed as potassium chloride): approximately 3 M
[Br-].[Li+] [LiBr, lithium bromide] | exothermic | -48.83 kJ/mol | 
CCOCCOCCO [DGME, Diethyleneglycolmonoethylether] |  |  | Stability/solubility of detergent in the Lysing/Binding Solution over time [4]: stays in solution
[Cl-].[Na+] [NaCl, sodium chloride] | endothermic | +0.93 kcal/mole | 
CCCCCCCCCCCC(=O)OCCOCCOCCOCCOCCOCCOCCOCCOCCOCCOCCOCCOCCOCCOCCOCCOCCOCCOCCOCCOCC(OCCOCCOCCOCCOCCOCCOCCOCCOCCOCCOCCOCCOCCOCCOCCOCCOCCOCCOCCOCCO)C1OCC(OCCOCCOCCOCCOCCOCCOCCOCCOCCOCCOCCOCCOCCOCCOCCOCCOCCOCCOCCOCCO)C1OCCOCCOCCOCCOCCOCCOCCOCCOCCOCCOCCOCCOCCOCCOCCOCCOCCOCCOCCOCCO (stereo not drawn) [Tween-20, polyoxylene sorbitan monolaurate] |  |  | Stability/solubility of detergent in the Lysing/Binding Solution over time [4]: saponified or degraded over time and fell out of solution
[Cl-].[Li+] [LiCl, lithium chloride] | exothermic | -37 kJ/mol | RNase activity detected as degraded RNA in the final eluted RNA product (RNase activity; 2.5 M LiCl Wash I Solution): RNase activity was detected at least half of the time; LiCl needed in the Wash I Solution in order to eliminate the RNase activity (RNase activity; Wash I Solution): at least 5 M; Measured Solubility in Lysis/Binding [5]: at least 4M
